Assay results: paper PMC3869945, “Synthetic 1,4-Pyran Naphthoquinones Are Potent Inhibitors of Dengue Virus Replication” (PLoS ONE, 2013)

Assays:
[1] = molecular target: T1, DENV-2 NS3 (full-length, NS3FL) ATPase activity (Dengue virus type 2, UniProt P14340); experiment: Colorimetric NTPase (ATPase) assay with purified full-length NS3; assay type: biochemical; conditions: for IC50: compound ≤ 100 μM; for NS3 ATPase inhibition, statistical difference from control (unpaired t-test, p < 0.05): screening in duplicate
T1 construct: The fragment corresponding to amino acids 1 to 619 of NS3FL was amplified; 10xHis (N, cleaved yes); ubiquitin (N, cleaved yes); made in house; host or cells: E. coli Rosetta (λDE3)
Description: The ATPase activity of NS3 was determined by measuring the extension of hydrolysis of NTP to NDP and Pi. The amount of free inorganic phosphate released was calculated by the hydrolysis of ATP using a standard curve with known Pi concentrations, and the reaction was measured at 660 nm using SpectraMax M5 spectrophotometer (Molecular Devices). Compounds were diluted from 20 mM or 40 mM stock solution prepared in 100% DMSO. These compounds were diluted to a final concentration of 10% DMSO in the assay buffer. The compound screening assay was performed in 96-well plate, and in each well reaction containing 600 nM NS3FL, 40 mM Tris-HCl (pH 7.5), 5 mM MgCl2, 5 mM DTT, 0.1M KCl were pre-incubated with 50µM of compounds (or varying concentrations of the compound) for 10 min at 30 °C. The kinetic activity was initiated by the addition of 1 mM of ATP substrate and incubation for 10 min at 30°C. Reactions were stopped with addition of 20 μL 50% TCA, followed by 80 μL of ammonium molibidate solution and 40 μL of reducing agent. Absorbance was read and data were processed on Sigma Plot Version 10.0. The initial reaction velocities (Vi) of product formation were determined from progress curves using the linear regression method and data converted to residual activity and/or calculate IC50% assuming Michelis-Mentem kinetics. The experiments were carried out in duplicate and the statistical difference between the inhibition reaction in the presence of each compound and the control were evaluated by unpaired t-test analysis.
Once the ATPase activity was confirmed after purification process, we used the colorimetric assay developed by Fiske and Subbarow for the screening of compounds, which was performed using 600 nM of NS3FL in reactions containing 40 mM Tris-HCl (pH 7.5), 5 mM DTT, 100 mM KCl, 5 mM MgCl2, and 1 mM ATP and 50 µM of the pyran naphthoquinones 8, 9 and 10. […] The percentage of NS3FL ATPase activity inhibition varied from 15 to 50% of the untreated control.

DENV-2 [2] = experiment: Virus replication inhibition assay in Vero cells, cell-free viral RNA by qPCR; assay type: cell-based; conditions: for % of Inhibition of DENV-2 Replication (qPCR): DENV-2 infected Vero cells, m.o.i 0.1, 72 h, highest non-toxic concentration (μM, in parentheses after label): 8d 25, 9b and 9c 100, 10a and 10b 12.5, Ribavirin 200; for IC50: qPCR, 100 to 0.4 μM dose response, Hill regression; for Inhibition of DENV-2 replication (in words): highest non-toxic concentration
Description: In order to test the anti-viral effect of the compounds used in this work, monolayers of Vero cells were inoculated with DENV-2 at an m.o.i of 0.1 for 2 hours. After this period, cells were washed with 1X PBS to remove unbound viruses and fresh media was added with the highest non-cytotoxic concentration of the compounds. Infected cells were also cultured with culture medium or 1% DMSO, as negative controls, or with 200μM of Ribavirin® as reference drug for DENV replication inhibition. After 72 h, culture supernatants were collected and viral RNA was extracted using the QIAamp Viral RNA Mini Kit (Qiagen – Hamburg, Germany), according to manufacturer’s instructions. The synthesis of cDNA was performed with random hexamers as primers and the High Capacity cDNA kit (LifeTechnologies – Carlsbad, USA) according to manufacturer’s instructions. The detection and quantification of the cell free viral genomic RNA was performed by qPCR using specific primers and probe hybridizing in the protein E gene region as already described. qPCR conditions were as follow: a reaction mixture consisting of 12.5μL of TaqMan (Invitrogen – Carlsbad, USA), 50 pmol of each primer, 9 pmol of the probe and 7μL of the cDNA reaction to a final volume of 25μL was submitted to 40 cycles of amplification in a ABI PRISM 7000 Detection System (LifeTechnologies – Carlsbad, USA) using 60°C annealing temperature. Amplification results were analyzed using the 7000 SDS software (LifeTechnologies – Carlsbad, USA) and the threshold parameter was manually adjusted.
The efficiency of the qPCR was calculated based on the slope of a Ct versus Template Concentration curve. To generate the calibration curve, a purified stock of DENV-2 containing 10^5 Plaque forming unities/ml was serially diluted and used to RNA extraction followed by cDNA synthesis, which was in turn used as template for the qPCR. A value of -3.30 was achieved, which represents an efficiency close to 100%. Based on this efficiency for the qPCR, the percentage of inhibition of DENV replication was calculated by the ΔΔCT method.
A dose response curve was also performed with the compounds that inhibited DENV replication by at least 30%. For this purpose, DENV-2-infected Vero cells were cultured with the selected compounds at concentrations varying from 100 to 0.4 μM and virus replication was measured by qPCR as above. IC50 values were obtained by the Hill’s regression curve using the software Prism 5. Experiments were always performed in triplicates. All results were confirmed in HepG2 cells by qPCR and by TCID50 in Vero cells.

DENV-2 [3] = experiment: Tissue Culture Infectious Dose (TCID50) confirmation of replication inhibition in Vero cells; assay type: cell-based; conditions: DENV-2 infected Vero cells
Description: Viruses used in this work include a DENV-2 prototype 16681 and a Brazilian isolate (44/02 - from Fundação Oswaldo Cruz – RJ - Brazil). Virus stocks were generated by infecting Vero cells at an 80% confluence with a multiplicity of infection (m.o.i) of 0.1. Infected cells were incubated at 37 °C for 5-7 days and inspected every day until the cytopathic effect was clearly observed. Supernatants were then collected, centrifuged at 1,200 x g for 10 min. to clear cellular debris and stored at -70°C until use. The titter of viral stocks was measured by TCID(50)% using serial dilutions of 10^1 to 10^7 of the viral stocks inoculated into Vero cells. The viral titter was calculated according with Reed and Munch.
A dose response curve was also performed with the compounds that inhibited DENV replication by at least 30%. For this purpose, DENV-2-infected Vero cells were cultured with the selected compounds at concentrations varying from 100 to 0.4 μM and virus replication was measured by qPCR as above. […]
To analyze the impact of the selected compounds on DENV replication, cells were infected and cultured with the highest non-toxic concentration of each compound and virus replication was analyzed by qRT-PCR. […] The differences in the percentage of inhibition when viral replication was measured by qRT-PCR and TCID50 were probably due to the differences in the sensibility of these assays. […]

Vero cells = experiment: Cytotoxicity assay, neutral red staining (confirmed with CellTiter Blue); assay type: cell-based, African Green Monkey; conditions: for Viability of uninfected host cell cultures: up to 100 µM, 72 h, neutral red
Description: Cell toxicity of all compounds used in this work was tested in Vero and HepG2 cells by Neutral Red dye exclusion assay. Briefly, cells were cultured with varying concentrations of each compound and incubated for 72 hours at 37°C. After this period, the cells were incubated with 0.05% neutral red solution for 3 hours, washed with 1X PBS and fixed with 20% paraformaldehyde for 5 min. Cells were washed again and the incorporated dye was extracted with a 50% methanol and 1% acetic acid solution for 20 min. Plates were read at 490nm in a ELISA reader. Results obtained with the neutral red dye exclusion assay were confirmed using the CellTiter Blue Cell Viability Kit (Promega, Madison - USA) according to manufacturer’s instructions.
The compounds were initially screened regarding their toxicity level after culturing Vero and HepG2 cells with the effective concentration of each compound. After 72h, cellular viability was analyzed by neutral red staining and confirmed by the conversion of redox resazurin into fluorescent resorufin.

[4] = molecular target: T2, DENV-2 NS3 protease domain linked to the NS2B cofactor (Dengue virus type 2, UniProt P14340); experiment: NS3 protease inhibition assay with NS2B cofactor; assay type: biochemical; conditions: in the presence of the NS2b cofactor, data not shown
T2 construct: the NS3 protease domain linked to the NS2B cofactor was purified; made in house
Description: We also evaluated whether the compounds were able to suppress the proteolytic activity of DENV-2 NS3. Several studies have shown that the NS2B cofactor is required by the protease domain to form a proteolytic active domain [47, 48]. Therefore, the NS3 protease domain linked to the NS2B cofactor was purified and the inhibition assay was performed as described by Leung and co-workers.

T1 sequence (P14340 1476-2093): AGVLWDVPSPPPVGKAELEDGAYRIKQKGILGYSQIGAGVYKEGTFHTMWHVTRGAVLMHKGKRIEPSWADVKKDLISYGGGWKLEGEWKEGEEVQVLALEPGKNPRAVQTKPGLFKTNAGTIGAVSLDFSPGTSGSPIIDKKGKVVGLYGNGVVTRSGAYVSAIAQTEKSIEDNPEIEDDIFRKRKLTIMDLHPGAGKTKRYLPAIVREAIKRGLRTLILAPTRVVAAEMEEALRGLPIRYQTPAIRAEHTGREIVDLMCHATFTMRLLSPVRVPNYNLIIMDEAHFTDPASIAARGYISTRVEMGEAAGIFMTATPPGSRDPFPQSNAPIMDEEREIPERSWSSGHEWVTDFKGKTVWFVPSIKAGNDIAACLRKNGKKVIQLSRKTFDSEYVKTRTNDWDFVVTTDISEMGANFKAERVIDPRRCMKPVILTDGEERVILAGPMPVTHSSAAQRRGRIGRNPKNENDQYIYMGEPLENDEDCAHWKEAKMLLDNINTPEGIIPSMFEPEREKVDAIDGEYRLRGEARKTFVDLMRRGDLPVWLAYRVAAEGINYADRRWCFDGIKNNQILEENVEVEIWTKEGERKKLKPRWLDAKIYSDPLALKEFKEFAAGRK
T2 sequence (P14340 1476-1653): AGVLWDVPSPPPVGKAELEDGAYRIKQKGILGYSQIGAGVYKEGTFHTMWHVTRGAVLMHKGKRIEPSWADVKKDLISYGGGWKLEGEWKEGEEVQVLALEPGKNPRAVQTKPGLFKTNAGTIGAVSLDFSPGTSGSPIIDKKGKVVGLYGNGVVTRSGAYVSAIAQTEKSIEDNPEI
T2 sequence (P14340 1398-1437): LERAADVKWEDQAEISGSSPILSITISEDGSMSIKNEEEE

## Cc1ccc(C2CC(c3ccc([N+](=O)[O-])cc3)C3=C(O2)C(=O)c2ccccc2C3=O)cc1 (stereo not drawn) [9b]
[1]; 600 nM NS3FL, 1 mM ATP
  IC50: > 100 µM
DENV-2 [2]
  % of Inhibition of DENV-2 Replication (qPCR): 99.0%
DENV-2 [2]; Vero cells
  IC50: 1.64 µM
DENV-2 [3]; Dengue virus, DENV2, Vero
  inhibition at 100 µM: 99.8%
Vero cells
  Viability of uninfected host cell cultures: did not reduce the viability
[4]
  Effect against the NS3 protease activity: did not observe any effect

## Cc1ccc(C2CC(c3cccs3)C3=C(O2)c2ccccc2C(=O)C3=O)cc1 (stereo not drawn) [8c]
[1]; 50 µM compound, 600 nM NS3FL, 1 mM ATP
  Reduction of the NS3 ATPase activity: two-fold reduction
[1]; 50 µM compound
  NS3 ATPase inhibition, statistical difference from control (unpaired t-test, p < 0.05): statistically different
Vero cells; concentration as low as 0.4 μM
  Toxicity to the cell culture: highly toxic

## Cc1ccc(C2CC(c3ccc([N+](=O)[O-])cc3)C3=C(O2)C(=O)c2ccccc2C3=O)cc1 (stereo not drawn) [9c]
[1]; 600 nM NS3FL, 1 mM ATP
  IC50: 80 ± 12 µM
[1]; 50 µM compound
  NS3 ATPase inhibition, statistical difference from control (unpaired t-test, p < 0.05): statistically different
DENV-2 [2]
  % of Inhibition of DENV-2 Replication (qPCR): 99.6%
DENV-2 [2]; DENV-2 replication in Vero cells
  IC50 of 9c fold lower than that of compound 9b: 5.3 fold
DENV-2 [2]; Vero cells
  Concentration to inhibit 50% of DENV replication, fold lower than aglycon analogue of teicoplanin: 20 fold
  IC50: 0.311 µM
DENV-2 [3]; 100 μM
  % of Inhibition of DENV-2 Replication (TCID50): 99.99%
Vero cells
  Viability of uninfected host cell cultures: did not reduce the viability
[4]
  Effect against the NS3 protease activity: did not observe any effect

## Cc1ccc(C2CC(c3ccccc3)C3=C(O2)c2ccccc2C(=O)C3=O)cc1 (stereo not drawn) [8d]
DENV-2 [2]
  % of Inhibition of DENV-2 Replication (qPCR): 0%
DENV-2 [2]; Vero cells
  Inhibition of DENV-2 replication (in words): did not inhibit DENV-2 replication

## NC(=O)c1ncn([C@@H]2O[C@H](CO)[C@@H](O)[C@H]2O)n1 [Ribavirin, reference compound]
DENV-2 [2]
  % of Inhibition of DENV-2 Replication (qPCR): 78.00%

## Cc1ccc(C2CC(c3ccc([N+](=O)[O-])cc3)C3=C(O2)c2ccccc2C(=O)C3=O)cc1 (stereo not drawn) [8b]
[1]; 50 µM compound
  NS3 ATPase inhibition, statistical difference from control (unpaired t-test, p < 0.05): statistically different

## O=C1C2=C(C(=O)c3ccccc31)C(c1ccc([N+](=O)[O-])cc1)C1=C(O2)C(=O)c2ccccc2C1=O [10b]
[1]; 50 µM compound
  NS3 ATPase inhibition, statistical difference from control (unpaired t-test, p < 0.05): statistically different
DENV-2 [2]
  % of Inhibition of DENV-2 Replication (qPCR): 0%
DENV-2 [2]; Vero cells
  Inhibition of DENV-2 replication (in words): did not inhibit DENV-2 replication

## O=C1C2=C(C(=O)c3ccccc31)C(c1ccccc1)C1=C(O2)C(=O)c2ccccc2C1=O [10a]
[1]; 50 µM compound
  NS3 ATPase inhibition, statistical difference from control (unpaired t-test, p < 0.05): statistically different
DENV-2 [2]
  % of Inhibition of DENV-2 Replication (qPCR): 0%
